According to patent US11648258B2, “Method and compounds for inhibiting the MCM complex and their application in cancer treatment” (priority 2012, dated 2023):

Key:
[1] = biological target: T1, hMcm2 and hMcm6 chromatin association (Homo sapiens, UniProt P49736+Q14566); test: Chromatin binding assay (pre-RC assembly) in HeLa cells; format: cell-based
T1 construct: endogenous in cells; host or cells: HeLa
Description: Cells were harvested by trypsinization and washed twice with cold PBS. Extraction buffer (EB; ˜20 μl/10^6 cells) (100 mM KCl, 50 mM HEPES-KOH pH7.5, 2.5 mM MgCl2, 50 mM NaF, 5 mM Na4P2O7, 0.1 mM NaVO3, 0.5% Triton X-100, 1 mM PMSF, 2 μg/ml Pepstatin A, 20 μg/ml Leupeptin, 20 μg/ml Aprotinin, 0.2 mM Pefabloc, 2 mM Benzamidine HCl and 0.2 mg/ml Bacitracin) was added to resuspend and lyse the cells by pippetting. Cells were set on ice for 10 min, and flicked to mix every 2-3 min during the incubation. A volume of 30% ice-cold sucrose equal to EB containing protease inhibitors as in EB was added to the bottom of tube. The tube was spun at top speed in a microcentrifuge for 10 min to separate the chromatin and free proteins. The supernatant was transferred to a new tube and kept on ice. […]
As the component of pre-RC, the MCM complex plays a central role in the licensing of DNA replication. […] In FIGS. 5A and B, asynchronous Hela cells were treated with 17beta-Deacetyltanghinin for 24 hrs and analyzed by the chromatin binding assay (FIG. 5A). Untreated cells (Untreat.), cells treated with the solvent DMSO, and those treated with 0.2, 0.4 or 0.8∝g/ml 17beta-Deacetyltanghinin were analyzed for pre-RC components in the chromatin and supernatant fractions by immunoblotting (FIG. 5A). […] Each cell sample was also analyzed for cell cycle distribution by flow cytometry (FIG. 5B). […]

L-02 cells = test: Flow cytometry (cell cycle) in normal L-02 cells; format: cell-based, human; details: 24 hrs
Description: Both floating and attached cells were collected and washed once with PBS. Cells were fixed in 70% ethanol for 1 hr to overnight at −20° C., washed thoroughly with PBS, and then stained in 50 μg/ml RNase A, 0.1% Triton X-100, 0.1 mM EDTA (pH 7.4), and 50 μg/ml propidium iodide for 30 min at 4° C. Samples were analyzed with the FACSort instrument (Becton Dickinson).
In FIG. 8A, flow cytometry was performed to analyze the DNA contents in HepG2 and L-02 cells treated with 17beta-Deacetyltanghinin at various concentrations for 24 hrs. In FIG. 8B, Hela cells were treated with 17beta-Deacetyltanghinin for 24 hrs and labeled with Annexin V-Cy3 (Arm. Cy3) for 20 min. Mitoxantrone (MTX), a clinical anticancer drug that can induce apoptosis in cancer cells, was used as a positive control.

[2] = test system: L-02 (normal liver) cells and HepG2 (liver cancer) cells; test: Growth resumption after drug removal, WST-1 assay; format: cell-based, human; details: one day treatment, then three days in fresh medium
Description: Data in FIGS. 2 and 8A indicate that the anti-proliferation compounds of this invention can specifically kill cancer cells with little cytotoxicity towards normal cells. To test if normal and/or cancer cells could resume cell growth after removal of 17beta-Deacetyltanghinin, L-02 (normal liver) cells and HepG2 (liver cancer) cells were incubated with 17beta-Deacetyltanghinin or DMSO for one day, 17beta-Deacetyltanghinin or DMSO was then removed, and the cells were further incubated with fresh growth medium for three days. Viable cell numbers were monitored daily by WST-1 assay. In FIG. 9, L+DAT refers to L-02 cells treated with 17beta-Deacetyltanghinin; L+D represents L-02 cells treated with DMSO; H+DAT refers to HepG2 cells treated with 17beta-Deacetyltanghinin; and H+D represents HepG2 cells treated with DMSO before being released into fresh medium.

[3] = In vivo toxicity assessment in nude mice; details: 5.0 mg/kg intraperitoneal for 20 days
Description: A further set of animal experiments was then conducted with a longer period of time, in which fifteen drug injections at 5.0 mg/kg were performed one week after tumor inoculation when the tumor size reached 0.05-0.1 cm^3. In FIG. 10B, drug injections and tumor size measurements were performed on the days represented by the data points, and the photographs in FIG. 10C were taken on day 20.
In FIG. 11, S refers to solvent-treated mice without tumor inoculation; S+T represents solvent-treated mice with tumor inoculation; DAT refers to 17beta-Deacetyltanghinin-treated mice without tumor inoculation; DAT+T represents 17beta-Deacetyltanghinin-treated mice with tumor inoculation; and P+T refers to Paelitaxel-treated mice with tumor inoculation. Three out of the five mice with intermediate tumor size in each group were selected for physiological parameters examination. The tumors (T) and internal organs including liver (L), heart (H) and kidney (K) were dissected from each mouse.
Furthermore, blood from each mouse was also collected for the tests of the ALT (alanine aminotransferase) and LDH (Lactate dehydrogenase) activities. […] The results of both tests were represented as the values of differently treated mice relative to the untreated ones.

T1 sequence (P49736 2-904 limits assumed): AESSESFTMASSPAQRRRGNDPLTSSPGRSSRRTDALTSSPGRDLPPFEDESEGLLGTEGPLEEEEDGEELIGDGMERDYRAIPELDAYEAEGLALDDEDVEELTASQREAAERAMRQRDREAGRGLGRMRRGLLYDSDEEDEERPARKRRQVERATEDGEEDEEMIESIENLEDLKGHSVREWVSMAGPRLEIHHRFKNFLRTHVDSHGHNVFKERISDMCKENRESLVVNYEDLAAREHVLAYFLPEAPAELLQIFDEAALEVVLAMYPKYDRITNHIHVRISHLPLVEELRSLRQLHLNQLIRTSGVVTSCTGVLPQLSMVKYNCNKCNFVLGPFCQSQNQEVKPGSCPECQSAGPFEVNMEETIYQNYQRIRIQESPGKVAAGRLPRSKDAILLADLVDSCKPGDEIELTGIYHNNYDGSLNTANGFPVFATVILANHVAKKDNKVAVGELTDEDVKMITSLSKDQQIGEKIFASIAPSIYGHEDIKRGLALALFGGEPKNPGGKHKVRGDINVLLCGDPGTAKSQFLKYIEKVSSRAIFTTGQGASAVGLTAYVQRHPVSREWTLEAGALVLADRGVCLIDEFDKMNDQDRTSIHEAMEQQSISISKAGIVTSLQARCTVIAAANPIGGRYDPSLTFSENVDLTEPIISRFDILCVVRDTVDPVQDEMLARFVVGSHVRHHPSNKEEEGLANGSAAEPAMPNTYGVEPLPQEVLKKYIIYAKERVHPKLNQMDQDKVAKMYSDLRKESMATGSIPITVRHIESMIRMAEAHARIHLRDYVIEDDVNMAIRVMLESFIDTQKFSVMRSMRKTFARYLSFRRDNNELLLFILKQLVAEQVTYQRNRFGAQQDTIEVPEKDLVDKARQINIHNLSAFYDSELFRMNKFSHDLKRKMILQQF
T1 sequence (Q14566 whole entry): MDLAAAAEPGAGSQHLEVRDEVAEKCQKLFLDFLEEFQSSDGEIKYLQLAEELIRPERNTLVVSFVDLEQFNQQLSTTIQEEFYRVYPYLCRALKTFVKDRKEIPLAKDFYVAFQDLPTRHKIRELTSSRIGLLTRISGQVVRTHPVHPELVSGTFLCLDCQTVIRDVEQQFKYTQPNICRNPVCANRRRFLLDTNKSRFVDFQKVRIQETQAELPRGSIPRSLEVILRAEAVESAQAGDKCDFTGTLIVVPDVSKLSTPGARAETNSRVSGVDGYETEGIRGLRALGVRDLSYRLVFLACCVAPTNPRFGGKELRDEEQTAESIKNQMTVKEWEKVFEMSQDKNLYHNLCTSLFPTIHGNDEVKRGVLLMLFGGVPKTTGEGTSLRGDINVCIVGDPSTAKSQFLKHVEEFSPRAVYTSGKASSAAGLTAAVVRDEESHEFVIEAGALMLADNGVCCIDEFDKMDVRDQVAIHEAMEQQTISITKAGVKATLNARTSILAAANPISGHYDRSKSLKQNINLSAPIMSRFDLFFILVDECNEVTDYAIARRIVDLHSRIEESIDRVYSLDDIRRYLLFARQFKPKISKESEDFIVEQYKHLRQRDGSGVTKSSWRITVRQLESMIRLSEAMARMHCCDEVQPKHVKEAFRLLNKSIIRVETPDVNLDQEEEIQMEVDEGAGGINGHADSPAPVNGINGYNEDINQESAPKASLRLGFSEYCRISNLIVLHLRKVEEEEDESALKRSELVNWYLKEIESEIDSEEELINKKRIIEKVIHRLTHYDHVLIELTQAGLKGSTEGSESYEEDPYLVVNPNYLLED

## COC1C(O)[C@H](O[C@H]2CC[C@]3(C)C4CC[C@]5(C)[C@@H](C6=CC(=O)OC6)CC[C@]5(O)[C@@]45O[C@H]5C[C@@H]3C2)OC(C)[C@@H]1O (stereo partly drawn) [17beta-Deacetyltanghinin, 3β-O-(3-O-methyl-6-deoxy-α-L-glucopyranosyl)-7β,8β-epoxy-14β-hydroxy-card-20(22)-enolide]
[1]; HeLa cells released from nocodazole M phase arrest
  MCM loading onto chromatin: largely prevented
[1]; asynchronous HeLa cells, 24 hrs, 0.2, 0.4 or 0.8 ∝g/ml
  hMcm2 and hMcm6 in chromatin fractions: significantly reduced
L-02 cells
  cell cycle effect in normal cells: mostly arrested in G1 phase
[2]
  growth resumption after removal of compound: normal cells, but not cancer cells, resumed growth
[3]
  appearance of organs (liver, heart, kidney): All organs looked normal
  body weight loss: no obvious weight loss
  organ weights relative to body weights: not significantly changed
[3]; relative to untreated mice
  blood ALT (printed ATL) or LDH level: did not induce significant increase
